Consider 86 molecules from PubChem BioAssay AID489035 (Sanford-Burnham Center for Chemical Genomics, 2010).

The source made the active and inactive calls. No rule for the calls is given here. Bounds are passed on as bounds.

This assay has as its system Jurkat NF-kB reporter, TCR-induced, luciferase luminescence. Description: T-cell NF-kB luciferase reporter inhibition – Jurkat cells, luminescence, dose response (AID 489035). In general terms: Reporter assays use an easily measured gene product as a stand-in for the process of interest.
The term IC50 denotes the concentration needed to halve the response being measured. On to `O=S1(=O)Nc2c(ccc3cccnc23)-c2ccccc21`, for which the IC50 is 2.17 µM.

`CCCOC(=O)c1[nH]c2c(c1C)C(=O)CC(c1cccs1)C2` (stereo unspecified): the IC50 is 32.1 µM (inactive).

Consider `Cc1ccc(S(=O)(=O)NCc2ccncc2)c(C)c1C`, for which the IC50 was > 80 µM (inactive).

In the case of `COc1cccc(/C=N/Nc2ccc(C(=O)O)cc2)c1O`, the concentration for half-maximal inhibition (IC50) is 0.28 µM.

In the case of `COc1ccc(Nc2nc(-c3sc(C)nc3C)cs2)cc1`, the IC50 was 38.8 µM (inactive).

As to `Nc1nc(-c2ccccc2)cc(N2CCCCC2)n1`, the IC50 is > 80 µM (inactive).

For `O[C@@H]1[C@@H](O)C=C2CCN3Cc4cc5c(cc4[C@H]1C23)OCO5` (stereo partly specified), the half-inhibitory concentration (IC50) is 0.84 µM.

In the case of `Cc1cc(NC(=O)COC(=O)c2ccc(S(=O)(=O)N3CCCc4ccccc43)cc2)no1`, the IC50 was > 80 µM (inactive).

Take `CCOC(=O)c1ccc(Nc2nc(N)c3cc(OC)c(OC)cc3n2)cc1`: the IC50 is > 80 µM (inactive).

In the case of `COC(=O)C[C@]1(C(=O)OC)CN(C#N)N(c2ccc(Cl)cc2)C12c1ccccc1-c1ccccc12`, the IC50 was 0.73 µM.

As to `Cc1cccc(N2CCN(C(=O)c3ccc(CS(=O)(=O)c4ccccc4C)o3)CC2C)c1` (stereo unspecified), the IC50 was 9.62 µM.

Consider `O=C(Nc1ccc(N2CCN(C(=O)c3ccc(Cl)cc3)CC2)cc1)c1ccc2c(c1)OCCO2`, for which the IC50 is > 80 µM (inactive).

For the molecule `Cc1ccc(C(=O)c2cc([N+](=O)[O-])ccc2N2CCOCC2)cc1C`, the 50% inhibitory concentration (IC50) is 19.6 µM.

As for `O=C(OCCN1C(=O)c2cccc3c(N4CCOCC4)ccc(c23)C1=O)c1ccc(Cl)cc1`, the IC50 was > 80 µM (inactive).

With `CCOc1cc(C#N)c(NC(=O)c2cccnc2)cc1OCC`, the IC50 was > 80 µM (inactive).

Consider `COc1ccc(OC)c(Nc2cc(-c3ccccc3)nc(N)n2)c1`, for which the IC50 is 26.9 µM (inactive).

Regarding `O=C(Nc1ccncc1)c1ccc(Cl)c(S(=O)(=O)N2CCc3ccccc32)c1`, the IC50 is > 80 µM (inactive).

On to `Cc1cc(-c2ccc(S(=O)(=O)N(C)c3ccc(C)c(C)c3)s2)on1`, for which the IC50 is > 80 µM (inactive).

Regarding `CCOC(=O)Nc1nc(-c2ccccc2)c(C(=O)c2ccc(Cl)cc2)s1`, the half-maximal inhibitory concentration (IC50) was 4.16 µM.

Take `COC(=O)c1ccccc1NC(=O)CSc1nc(-c2ccco2)cc(C(F)(F)F)n1`: the IC50 was 72.2 µM (inactive).

`Cc1ccc(C(=O)c2cc([N+](=O)[O-])ccc2N2CCCCC2)c(C)c1`: the IC50 is > 80 µM (inactive).

For the molecule `O=C(COc1ccccc1-c1ccccc1)N/N=C/c1cccc2ccccc12`, the IC50 is below 0.16 µM.

Regarding `O=C(N/N=C/c1c(O)ccc2ccccc12)c1cccc(C(F)(F)F)c1`, the IC50 is 10.4 µM.

With `CCc1ccc2nc(SCC(=O)Nc3ccccc3N3CCOCC3)c(C#N)cc2c1`, the IC50 is 32.4 µM (inactive).

For the molecule `COc1ccccc1C1=NOC(COc2ccc3c(C)cc(=O)oc3c2)C1` (stereo unspecified), the IC50 is > 80 µM (inactive).

As to `Cc1ccc(/C=N/NC(=O)C2COc3ccccc3O2)s1` (stereo unspecified), the IC50 was > 80 µM (inactive).

In the case of `Cn1cc(C(=O)N/N=C/c2c(O)ccc3ccccc23)ccc1=O`, the IC50 was 1.89 µM.

In the case of `CCCc1cc(C(=O)N/N=C/c2ccc(CC)s2)c2ccccc2n1`, the half-maximal inhibitory concentration (IC50) was 13 µM.

As for `O=C(Cc1ccc(-c2ccccc2)cc1)NCc1ccccc1`, the 50% inhibitory concentration (IC50) is below 0.16 µM.

Regarding `COc1cc(C2c3cc4c(cc3C(OC3OC5COC(c6cccs6)OC5C(O)C3O)C3COC(=O)C23)OCO4)cc(OC)c1O` (stereo unspecified), the IC50 was 0.68 µM.

As to `COc1ccc(C(=O)/C(C#N)=N/Nc2ccc([N+](=O)[O-])cc2)cc1`, the IC50 was 9.52 µM.

Turning to `CCN(CC)c1ccc2nc3ccc(N)cc3[n+](-c3ccccc3)c2c1`, the half-maximal inhibitory concentration (IC50) was 2.62 µM.

In the case of `O=C1C=C(c2ccc3ncccc3c2)C[C@@H](c2ccc3c(c2)OCO3)C1`, the IC50 is > 80 µM (inactive).

As for `CC(=O)c1ccc(Oc2cc(C)nc(-n3nc(C)cc3C)n2)cc1`, the concentration for half-maximal inhibition (IC50) is 13.5 µM.

Consider `CC1(C)C[C@H]2C=C(C=O)[C@]3(C=O)C[C@]3(C)[C@H]2C1`, for which the half-inhibitory concentration (IC50) is 9.17 µM.

Turning to `COCCCNC(=O)C(=O)Nc1ccc2c(c1)N(S(=O)(=O)c1cccs1)CCC2`, the IC50 is 5.46 µM.

For the molecule `Cn1nc(-c2ccccn2)nc2c(=O)n(C)c(=O)nc1-2`, the IC50 was 12.4 µM.

For the molecule `Cc1cc(NC(=O)CSc2nc3ccccc3c(=O)n2C2CCCC2)no1`, the IC50 was > 80 µM (inactive).

Regarding `C/C=C(\C)C(=O)N[C@@H](c1ccccc1)[C@@H](O)C(=O)O[C@H]1C[C@@]2(O)[C@@H](OC(=O)c3ccccc3)C3[C@](C)(C(=O)[C@H](OC(C)=O)C(=C1C)C2(C)C)[C@H](O)C[C@H]1OC[C@@]31OC(C)=O` (stereo partly specified), the IC50 was below 0.16 µM.

For `CCCCC(=O)NC(c1ccc(N(C)C)cc1)c1ccc2cccnc2c1O` (stereo unspecified), the IC50 was > 80 µM (inactive).

As to `O=c1cc(-c2cccc(F)c2)[nH]c2ccccc12`, the IC50 is > 80 µM (inactive).

Turning to `Cc1cccc(OCCNC(=O)c2ccc(Cl)c(S(=O)(=O)NCc3cccnc3)c2)c1`, the IC50 was > 80 µM (inactive).

Turning to `CC1=C(C(=O)OCc2ccc3c(c2)OCO3)C(c2ccc(Cl)cc2)NC(=O)N1` (stereo unspecified), the IC50 is 0.63 µM.

As for `Cc1cc(O)c2c(c1O)C(=O)[C@]13C(=C2O)C(=O)[C@@H]2[C@@H](O)[C@H]1[C@@H]1[C@H](O)[C@H]3C(=O)C3=C(O)c4c(O)cc(C)c(O)c4C(=O)[C@]312`, the IC50 was below 0.16 µM.

For the molecule `CC(C)(C)c1ccc(C(=O)O/N=C(\N)c2ccccn2)cc1`, the half-maximal inhibitory concentration (IC50) was 9.45 µM.

Take `CC1C/C(=C/c2ccncc2)C(=O)/C(=C/c2ccncc2)C1` (stereo unspecified): the IC50 was 1.39 µM.

As for `COC(=O)c1ccc(C)c(NS(=O)(=O)c2ccc3c(c2)OCCO3)c1`, the IC50 is > 80 µM (inactive).

With `CCc1ccc(/C=N/NC(=O)c2cc(-c3ccncc3)nc3ccccc23)s1`, the IC50 was > 80 µM (inactive).

As to `Cc1ccc2[nH]c(-c3cccc(F)c3)cc(=O)c2c1`, the IC50 was > 80 µM (inactive).

As to `Cc1cc(C)cc(C(=O)N2CC(=O)Nc3ccccc32)c1`, the IC50 was 15.7 µM.

Turning to `Cc1ccc(C(=O)c2cc([N+](=O)[O-])ccc2N2CCCCC2)cc1C`, the IC50 was 37 µM (inactive).

As for `C[C@]12CC[C@H](O)C[C@H]1CC[C@@H]1[C@@H]2CC[C@]2(C)[C@@H](C3=CC(=O)OC3)CC[C@]12O`, the half-inhibitory concentration (IC50) was 3.53 µM.

For the molecule `Cc1ccc2c(c1)Oc1ccc(NC(=O)CCl)cc1C(=O)N2`, the half-inhibitory concentration (IC50) is 5.22 µM.

With `O=C(Nc1cccc2ccccc12)OC1C=CS(=O)(=O)C1` (stereo unspecified), the concentration for half-maximal inhibition (IC50) was 1.06 µM.

For the molecule `CCOCCOC(=O)c1[nH]c2c(c1C)C(=O)CC(c1cccs1)C2` (stereo unspecified), the IC50 was > 80 µM (inactive).

As to `C#Cc1ccc([C@@H]2C=C(C(=O)N3CCN(Cc4ccccc4)CC3)O[C@H](OCCCCO)C2)cc1`, the IC50 is > 80 µM (inactive).

As to `CCOC(=O)C(C)Oc1cccc2c(=O)n(CC(=O)NCc3ccc4c(c3)OCO4)ccc12` (stereo unspecified), the IC50 was 9.88 µM.

Regarding `COc1cc(NS(=O)(=O)c2ccc(OC)c(C)c2C)c(OC)cc1Cl`, the IC50 was > 80 µM (inactive).

As for `O=C(Nc1ccn(Cc2ccccc2F)n1)c1ccc(COc2ccc(Br)cc2)cc1`, the IC50 was > 80 µM (inactive).

In the case of `COc1ccccc1NC(=O)C1=C(C)Nc2nc3ccccc3n2C1c1cccs1` (stereo unspecified), the IC50 was 52.3 µM (inactive).

For `COC(=O)c1c(NC(=O)c2ccc([N+](=O)[O-])o2)sc2c1CCN(C(C)C)C2`, the concentration for half-maximal inhibition (IC50) was 6.76 µM.

Consider `O=C(c1ccccc1)c1nn(-c2ccc(Cl)cc2)c(=O)cc1C(F)(F)F`, for which the IC50 is 1.25 µM.

Turning to `Cc1ccc2cccc(NS(=O)(=O)c3ccccc3)c2n1`, the IC50 was 0.98 µM.

Regarding `COc1cc2c(cc1O)CC[C@@H]1[C@@H]2CC[C@]2(C)[C@@H](O)CC[C@@H]12`, the IC50 is > 80 µM (inactive).

For `CCN(CC)S(=O)(=O)c1ccc(NC(=O)c2ccc(CN3CCOCC3)cc2)cc1`, the IC50 is > 80 µM (inactive).

As for `CCOc1ccc(S(=O)(=O)N2c3ccccc3CC2C)cc1` (stereo unspecified), the IC50 is 8.42 µM.

Take `CCOc1ccccc1C1CC(=O)Nc2cc(C)c(C)cc21` (stereo unspecified): the IC50 was > 80 µM (inactive).

In the case of `COC(=O)CCC(=O)NC(=S)Nc1sc(C)c(C)c1C(N)=O`, the IC50 was > 80 µM (inactive).

Turning to `COc1cc(C(=O)Nc2ccc3c(c2)ncn3C)cc(OC)c1OC`, the IC50 was > 80 µM (inactive).

For the molecule `COc1cc(C2c3cc4c(cc3CC3COC(=O)C32)OCO4)cc(OC)c1OC` (stereo unspecified), the IC50 is > 80 µM (inactive).

With `CCC1CCCCN1C(=O)c1cc(COc2ccc3ncccc3c2)on1` (stereo unspecified), the IC50 is > 80 µM (inactive).

Regarding `Clc1cccc(Cl)c1OCCOCCNCc1ccccc1`, the IC50 is > 80 µM (inactive).

Take `C=CCNC(=S)N/N=C(\C)c1ccccn1`: the IC50 was 1.09 µM.

Take `COc1cccc(N2CCN(C(=O)c3ccc(CS(=O)c4ccccc4C)o3)CC2)c1` (stereo unspecified): the IC50 was 16.7 µM.

For the molecule `O=C(Nc1ccc([N+](=O)[O-])cc1)Nc1ccon1`, the IC50 is > 80 µM (inactive).

For `CN(Cc1ccccc1)C1=CC(=[N+]2CCCC2)CC(C)(C)C1`, the IC50 was 55.1 µM (inactive).

Take `C#CC[N+](C)(C)CCCCCCCCCCCC`: the IC50 was 9.77 µM.

In the case of `COC(=O)c1[nH]c2c(c1C)C(=O)CC(c1cccc(OC)c1)C2` (stereo unspecified), the IC50 was > 80 µM (inactive).

For the molecule `COc1ccc(C)c(Cn2c(-c3nonc3N)nc3ccccc32)c1`, the IC50 is > 80 µM (inactive).

In the case of `COc1cccc(-c2cc(=O)c3cc(NC(=O)c4ccc(N(C)C)cc4)ccc3[nH]2)c1`, the IC50 is 6.22 µM.

Regarding `C[C@@H]1C=CC(=O)O[C@@H]1c1ccc(Cl)cc1`, the IC50 is 0.38 µM.

For `CCC(C)C(=O)N[C@@H](c1ccccc1)[C@@H](O)C(=O)O[C@H]1C[C@@]2(O)[C@@H](OC(=O)c3ccccc3)C3[C@](C)(C(=O)[C@H](OC(C)=O)C(=C1C)C2(C)C)[C@@H](O)C[C@H]1OC[C@@]31OC(C)=O` (stereo partly specified), the IC50 is > 80 µM (inactive).

`O=C(NN=Cc1c(O)ccc2ccccc12)c1ccc2c(c1)OCO2`: the IC50 was 26.6 µM (inactive).

With `CCn1ncc(C2=NOC(C(=O)NCc3ccc(Cl)cc3)C2)c1C` (stereo unspecified), the IC50 is > 80 µM (inactive).

`O=C1c2c(O)ccc(O)c2C(=O)c2c(NCCNCCO)ccc(NCCNCCO)c21`: the IC50 was 2.23 µM.

Turning to `COc1cc([C@@H]2c3cc4c(cc3[C@H](O)[C@H]3COC(=O)[C@H]23)OCO4)cc(OC)c1OC`, the IC50 is > 80 µM (inactive).
